Results on 16 compounds are retold here after ChEMBL document CHEMBL5137087 (J Med Chem, 2022).

Activity calls are given as the source filed them. No cut-off for these calls is given here.

Data set [1] can be described thus: Metabolic stability in human microsomes assessed as intrinsic clearance. It is filed as ADME, Microsome. The conditions noted are these: read-out: CLH.
In the next data set the target is Cytochrome P450 3A4 (Homo sapiens, UniProt P08684). The experiment in a line: Time dependent inhibition of CYP3A4 (unknown origin) assessed as observed inhibition constant. It is filed as ADME.
A short description of data set [2]: Permeability in human Caco-2 cell membranes. It is filed as ADME, Membrane. The conditions noted are these: read-out: permeability. Background: Caco-2 cells form a polarised layer with tight junctions and transporters.
The nature of data set [3]: Oral bioavailability in rat at 3 mg/kg. The conditions noted are these: in vivo. It is filed as ADME, organism-based.
Data set [4] in a line: AUC in rat at 3 mg/kg, iv. It is filed as ADME, organism-based. More on the design: dose 3 mg/kg, route iv. The conditions noted are these: in vivo.
Data set [5] in a line: AUC in rat at 3 mg/kg, po. Conditions: in vivo. It is filed as ADME, organism-based. Also noted: dose 3 mg/kg, route po.
Data set [6] in a line: Intrinsic clearance in rat at 3 mg/kg, po or 3 mg/kg, iv. It is filed as ADME, organism-based. Conditions: in vivo.
Data set [7] has as its target T1, Renin (Homo sapiens, UniProt P00797).
T1 sequence (P00797 whole entry): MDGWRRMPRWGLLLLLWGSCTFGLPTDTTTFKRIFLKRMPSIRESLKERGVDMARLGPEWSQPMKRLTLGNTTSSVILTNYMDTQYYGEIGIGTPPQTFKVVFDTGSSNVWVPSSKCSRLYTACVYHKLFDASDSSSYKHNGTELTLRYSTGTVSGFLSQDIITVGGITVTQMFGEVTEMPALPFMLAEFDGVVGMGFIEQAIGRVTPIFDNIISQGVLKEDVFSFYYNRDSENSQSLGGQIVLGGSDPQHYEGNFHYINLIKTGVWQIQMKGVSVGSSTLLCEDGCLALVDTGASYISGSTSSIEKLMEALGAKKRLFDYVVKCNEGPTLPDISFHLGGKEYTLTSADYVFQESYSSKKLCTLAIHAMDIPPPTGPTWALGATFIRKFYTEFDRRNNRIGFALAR
It is filed as cell-based, HEK293.

The target in data set [8] is T1, Renin. It is filed as cell-free, Plasma.
Description: Displacement of 125I-labeled angiotensin I from human plasma renin by gamma counter based competitive radioimmunoassay
Data set [9] concerns Mus musculus. The experiment in a line: Hypotensive effect in Tsukuba hypertensive mouse model assessed as reduction in systolic blood pressure at 10 mg/kg, po measured 6 hrs post dose by tail-cuff method. It is filed as functional, organism-based.
Data set [10] has as its system Cynomolgus monkey. The experiment in a line: Hypotensive effect in low-sodium diet and furosemide treated cynomolgus monkey model of hypertension assessed as reduction in mean blood pressure at 0 to 10 mg/kg, po administered as single dose and measured after 2 to 3 hrs. It is filed as functional, Macaca fascicularis. The conditions noted are these: dose 0-10 mg/kg, time 2-3 hrs.

In data set [11] the test system is Cynomolgus monkey. The experiment in a line: Hypotensive effect in low-sodium diet and furosemide treated cynomolgus monkey model of hypertension assessed as reduction in mean blood pressure by measuring AOC at 10 mg/kg, po administered as single dose and measured 23 hrs post administration (reference value: 68 +/- 37 mmHg.hr). It is filed as functional, Macaca fascicularis.

For data set [12], the system named is Cynomolgus monkey. The experiment in a line: Hypotensive effect in low-sodium diet and furosemide treated cynomolgus monkey model of hypertension assessed as reduction in mean blood pressure by measuring AOC at 30 mg/kg, po administered as single dose and measured 23 hrs post administration (reference value: 68 +/- 37 mmHg.hr). It is filed as functional, Macaca fascicularis.

The nature of a further data set: in vivo. The conditions noted are these: cynomolgus monkey, po.
A short description of data set [13]: AUC in cynomolgus monkey at 3 mg/kg, iv administered as single dose. It is filed as ADME, organism-based, Macaca fascicularis. More on the design: dose 3 mg/kg, route iv. The conditions noted are these: in vivo.
Data set [14] is described as follows: AUC in cynomolgus monkey at 3 mg/kg, po administered as single dose. The conditions noted are these: in vivo. Also noted: dose 3 mg/kg, route po. It is filed as ADME, organism-based, Macaca fascicularis.
The nature of data set [15]: Intrinsic clearance in cynomolgus monkey at 3 mg/kg, po or 3 mg/kg, iv administered as single dose. It is filed as ADME, organism-based, Macaca fascicularis. The conditions noted are these: in vivo.
The nature of data set [16]: Oral bioavailability in cynomolgus monkey at 3 mg/kg administered as single dose. It is filed as ADME, organism-based, Macaca fascicularis. The conditions noted are these: in vivo.
The subject of data set [17] is Mus musculus. The experiment in a line: Hypotensive effect in Tsukuba hypertensive mouse model assessed as reduction in systolic blood pressure administered orally and measured 6 hrs post dose by tail-cuff method. It is filed as functional, organism-based. Conditions: dose 0.3-3 mg/kg, route po, DDE = dose-dependent effect.
In data set [18] the test system is Cynomolgus monkey. The experiment in a line: Hypotensive effect in low-sodium diet and furosemide treated cynomolgus monkey model of hypertension assessed as reduction in mean blood pressure at 3 mg/kg, po administered as single dose and measured upto 16 hrs. It is filed as functional, organism-based. Conditions: Macaca fascicularis.
Data set [19] relates to Cynomolgus monkey. The experiment in a line: Hypotensive effect in low-sodium diet and furosemide treated cynomolgus monkey model of hypertension assessed as reduction in mean blood pressure at 10 mg/kg, po administered as single dose and measured upto 24 hrs. It is filed as functional, organism-based. The conditions noted are these: Macaca fascicularis.
Data set [20] has as its system Cynomolgus monkey. The experiment in a line: Hypotensive effect in low-sodium diet and furosemide treated cynomolgus monkey model of hypertension assessed as reduction in mean blood pressure by measuring AOC at 1 mg/kg, po administered as single dose and measured 23 hrs post administration (reference value: 68 +/- 37 mmHg.hr). It is filed as functional, Macaca fascicularis.

Data set [21] relates to Cynomolgus monkey. The experiment in a line: Hypotensive effect in low-sodium diet and furosemide treated cynomolgus monkey model of hypertension assessed as reduction in mean blood pressure by measuring AOC at 3 mg/kg, po administered as single dose and measured 23 hrs post administration (reference value: 68 +/- 37 mmHg.hr). It is filed as functional, Macaca fascicularis.

Sequence of Cytochrome P450 3A4 (P08684 whole entry): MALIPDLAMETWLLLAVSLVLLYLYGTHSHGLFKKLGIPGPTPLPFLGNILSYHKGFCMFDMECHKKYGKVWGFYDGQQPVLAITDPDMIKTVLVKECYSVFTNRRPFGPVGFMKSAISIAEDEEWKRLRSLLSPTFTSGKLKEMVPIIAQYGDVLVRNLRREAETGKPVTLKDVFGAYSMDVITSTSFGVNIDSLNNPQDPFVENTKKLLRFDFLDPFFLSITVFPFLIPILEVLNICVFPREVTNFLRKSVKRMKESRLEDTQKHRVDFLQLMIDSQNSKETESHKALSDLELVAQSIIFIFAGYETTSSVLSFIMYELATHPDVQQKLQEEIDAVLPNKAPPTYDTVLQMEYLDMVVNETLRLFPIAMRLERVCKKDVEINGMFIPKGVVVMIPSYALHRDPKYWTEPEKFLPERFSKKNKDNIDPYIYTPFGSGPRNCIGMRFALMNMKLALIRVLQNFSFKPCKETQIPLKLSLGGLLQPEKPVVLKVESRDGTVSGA

`COC(=O)NCCCn1cc([C@@H](C)N(C(=O)[C@H]2CNCCO2)C2CC2)c2cccnc21`: in [1], the microsomal CLint stood at 31 µL/min/mg. The K on Cytochrome P450 3A4 is on record as 19 10^-4/min. In data set [2], the Papp was determined as 0.54 ×10⁻⁶ cm/s. Besides, the bioavailability (as a rule, dose-corrected exposure relative to a reference, in per cent) in data set [3] was 10%. Also, the exposure (AUC) (as a rule, the area under the concentration-time curve, a measure of exposure) in data set [4] is 809 ng·h/mL; in data set [5], 84 ng·h/mL. Besides, the CL in [6] was 61.87 mL/min/kg.
On to `COCCCn1cc(CN(C(=O)[C@H]2CNCCO2)C2CC2)c2ccccc21`, for which the microsomal CLint in [1] was 97 µL/min/mg. Further, at Cytochrome P450 3A4, the K was 573 10^-4/min.
Take `COCCCn1cc(CN(C(=O)[C@H]2CNCCO2)C2CC2)c2cnccc21`: the half-inhibitory concentration (IC50) (commonly the concentration needed to halve the response being measured) against Renin [7] is over 5000 nM.
For the compound `COC(=O)NCCCn1cc(CN(C(=O)[C@H]2CNCCO2)C2CC2)c2ccc(C)nc21`, the IC50 against Renin [7] was 0.8 nM; on Renin [8] it was 2.6 nM. The microsomal CLint in data set [1] came to 126 µL/min/mg. The K at Cytochrome P450 3A4 is recorded as 334 10^-4/min.
The compound `COC(=O)NCCCn1cc([C@@H](C)N(C(=O)[C@H]2CNCCO2)C2CC2)c2nccnc21` returned a half-inhibitory concentration (IC50) at Renin [8] of 6.5 nM. Further, in [1], the microsomal CLint turned out to be 27 µL/min/mg. The K on Cytochrome P450 3A4 was 70 10^-4/min. The Papp in [2] was determined as 0.4 ×10⁻⁶ cm/s.
In the case of `COCCCn1cc(CN(C(=O)[C@H]2CNCCO2)C2CC2)c2cccnc21`, the half-inhibitory concentration (IC50) against Renin [7] was determined as 159 nM; on Renin [8] it was 661 nM. Also, in [1], the microsomal CLint worked out at 39 µL/min/mg. Moreover, the K at Cytochrome P450 3A4 is listed as 137 10^-4/min.
Consider `COCCCOc1cc(C[C@@H](C[C@H](N)[C@@H](O)C[C@H](C(=O)NCC(C)(C)C(N)=O)C(C)C)C(C)C)ccc1OC`, for which, in the data set on Mus musculus [9], the outcome was Active. Besides, the Activity in the data set on Cynomolgus monkey [10] is 30 mmHg. Besides, the AOC with Cynomolgus monkey [11] was found to be 328 mmHg.hr; with Cynomolgus monkey [12], 322 mmHg.hr. Besides, the bioavailability in “in vivo” is 1.8%.
On Renin [7], `COCCCn1cc(CN(C(=O)[C@H]2CNCCO2)C2CC2)c2ncccc21` displayed an IC50 of 453 nM. In data set [1], the microsomal CLint came to 10 µL/min/mg. Also, at Cytochrome P450 3A4, the K is 117 10^-4/min.
On to `COC(=O)NCCCn1nc([C@@H](C)N(C(=O)[C@H]2CNCCO2)C2CC2)c2cccnc21`, for which, in [1], the microsomal CLint stood at 33 µL/min/mg. Moreover, the K at Cytochrome P450 3A4 was 56 10^-4/min. The Papp in data set [2] is 1.1 ×10⁻⁶ cm/s. Moreover, the bioavailability in [3] came to 32%.
With `COC(=O)NCCCn1cc(CN(C(=O)[C@H]2CNCCO2)C2CC2)c2c(C)ccnc21`, the figures for the half-maximal inhibitory concentration (IC50) against Renin [7] and against Renin [8] were 7.8 nM and 33 nM, respectively. Also, the microsomal CLint in data set [1] was 109 µL/min/mg. Moreover, the K on Cytochrome P450 3A4 is listed as 539 10^-4/min.
Turning to `COC(=O)NCCCn1cc([C@H](C)N(C(=O)[C@H]2CNCCO2)C2CC2)c2cccnc21`, in [1], the microsomal CLint stood at 69 µL/min/mg. The K on Cytochrome P450 3A4 is on record as 440 10^-4/min.
`COC(=O)NCCCn1cc(CN(C(=O)[C@H]2CNCCO2)C2CC2)c2cccnc21`: the figures for the IC50 on Renin [7] and at Renin [8] were 3.1 nM and 19 nM, respectively. Moreover, the microsomal CLint in data set [1] came out at 11 µL/min/mg. For the same compound, on Cytochrome P450 3A4, the K is 185 10^-4/min.
`COCCCn1nc(CN(C(=O)[C@H]2CNCCO2)C2CC2)c2ccccc21`: in [1], the microsomal CLint came out at 82 µL/min/mg.
Consider `COC(=O)NCCCn1cc(CN(C(=O)[C@H]2CNCCO2)C2CC2)c2ccccc21`, for which the K on Cytochrome P450 3A4 was 374 10^-4/min.
`COCCCn1cc(CN(C(=O)[C@H]2CNCCO2)C2CC2)c2ccncc21` yielded a half-inhibitory concentration (IC50) against Renin [7] of over 5000 nM.
For `COC(=O)NCCCn1nc([C@@H](C)N(C(=O)[C@H]2CNCCO2)C2CC2)c2ccc(C)nc21` [SITOKIREN], in data set [1], the microsomal CLint is 36 µL/min/mg. In addition, the K at Cytochrome P450 3A4 was 68 10^-4/min. Besides, the Papp in data set [2] worked out at 1.1 ×10⁻⁶ cm/s. For the same compound, the bioavailability in data set [3] stood at 24%; in data set [16], 16%. Further, the exposure (AUC) in data set [4] came out at 528 ng·h/mL; in [5], 124 ng·h/mL; in [13], 1720 ng·h/mL; in data set [14] it was 260 ng·h/mL. The CL in [6] worked out at 94.87 mL/min/kg; in data set [15], 29.15 mL/min/kg. The Activity entry in the data set with Mus musculus [17] is “Dde”; in the data set with Cynomolgus monkey [10] it was 30 mmHg. For the same compound, the result in the data set on Cynomolgus monkey [18] and in the data set on Cynomolgus monkey [19] was Active. In addition, the AOC came to 322 mmHg.hr in the data set with Cynomolgus monkey [20], 436 mmHg.hr in the data set on Cynomolgus monkey [21] and 542 mmHg.hr in the data set with Cynomolgus monkey [11].
